Laboratory results taken from PubChem BioAssay (NCI).
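Growth conditions: 96-well plates. Treatment: test compound, 48 hours, 5 concentrations. Analysis: linear interpolation between bracketing concentrations; unreached endpoints set to highest concentration. At the TGI there is no net growth.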

How the values were obtained:
Assay in all cases: DTP human tumour cell line panel, 48 h
[1] = test system: 786-0 renal
[2] = test system: A549 NSCLC
[3] = test system: COLO 205 colon
[4] = test system: HL-60(TB) leukemia
[5] = test system: K-562 leukemia
[6] = test system: LOX IMVI melanoma
[7] = test system: MDA-MB-231 breast
[8] = test system: MDA-MB-435
[9] = test system: NCI-H522 lung
[10] = test system: NCI/ADR-RES ovarian
[11] = test system: OVCAR-3 ovarian
[12] = test system: OVCAR-5 ovarian
[13] = test system: RPMI-8226 leukemia
[14] = test system: RXF 393 renal
[15] = test system: SF-539 CNS
[16] = test system: SNB-19 CNS
[17] = test system: SR leukemia
[18] = test system: UACC-62 melanoma

| Structure (SMILES) | TGI [1] [µM] | TGI [2] [µM] | TGI [3] [µM] | TGI [4] [µM] | TGI [5] [µM] | TGI [6] [µM] | TGI [7] [µM] | TGI [8] [µM] | TGI [9] [µM] | TGI [10] [µM] | TGI [11] [µM] | TGI [12] [µM] | TGI [13] [µM] | TGI [14] [µM] | TGI [15] [µM] | TGI [16] [µM] | TGI [17] [µM] | TGI [18] [µM] |
| --- | --- | --- | --- | --- | --- | --- | --- | --- | --- | --- | --- | --- | --- | --- | --- | --- | --- | --- |
| CC1OC(O[C@H]2CC[C@]3(C=O)[C@H]4CC[C@]5(C)[C@H](C6=CC(=O)OC6)CC[C@]5(O)[C@@H]4C=C[C@]3(O)C2)CC(O)C1O (stereo partly drawn) | 0.296 | 0.378 | 1.91 | 0.689 | 9.01 | 0.652 | 2.57 | 0.701 | 0.241 | 0.623 | 0.583 | 1.42 | 2.37 | 0.193 | 0.488 | 3.25 | 0.682 | 0.807 |
| COc1ccc2c(CCNS(=O)(=O)c3ccccc3)c(C(C)=O)[nH]c2c1 | > 100 | > 100 | > 100 | > 100 | > 100 | > 100 | > 100 | > 75.6 | > 100 | > 100 | > 100 | > 100 | > 100 | > 100 | > 100 | > 100 | > 100 | > 100 |
| CN(C)Cc1cc(N=Nc2ccc(Cl)cc2)ccc1O | 25.8 | 29.4 | 13.8 | 32.1 | 35.2 | 23.5 | 32.2 | 30.3 | 26.3 | 33.4 | 24.2 | 26.3 |  | 27.9 | 34.8 | 34.1 | 39.8 | 30.1 |
